MIC data for five molecules are collected here from ChEMBL document CHEMBL1144385, “Solid-phase synthesis and antibacterial evaluations of N-demethylvancomycin derivatives” (2005).

By MIC is commonly meant the lowest concentration found to suppress growth.

Holding throughout (assay type): functional
Assay [1] has as its system Staphylococcus aureus. Kind of assay: Minimum inhibitory concentration against growth of […] aureus (ATCC 29213).
Assay [2] concerns Staphylococcus aureus. Kind of assay: Minimum inhibitory concentration against growth of Methicillin resistant […] aureus.
The test system of assay [3] is Enterococcus faecalis. Kind of assay: Minimum inhibitory concentration against growth of Enterococcus faecalis (ATCC 29212).
The test system of assay [4] is Enterococcus faecalis. Kind of assay: Minimum inhibitory concentration against growth of vancomycin-resistant Enterococcus faecalis (ATCC 51299).

≈ marks a conversion by molar mass, not a printed value.

Consider `CN[C@H](CC(C)C)C(=O)N[C@H]1C(=O)N[C@@H](CC(N)=O)C(=O)N[C@H]2C(=O)N[C@H]3C(=O)N[C@H](C(=O)N[C@H](C(=O)O)c4cc(O)cc(O)c4-c4cc3ccc4O)[C@H](O)c3ccc(c(Cl)c3)Oc3cc2cc(c3O[C@@H]2O[C@H](CO)[C@@H](O)[C@H](O)[C@H]2O[C@H]2C[C@](C)(N)[C@H](O)[C@H](C)O2)Oc2ccc(cc2Cl)[C@H]1O` [VANCOMYCIN], for which the minimal inhibitory concentration (MIC) against Staphylococcus aureus [1] is 0.62 µg/mL (≈ 0.428 µM); in the assay on Staphylococcus aureus [2], 1.25 µg/mL (≈ 0.863 µM); against Enterococcus faecalis [3], 2.5 µg/mL (≈ 1.73 µM); with Enterococcus faecalis [4], over 10 µg/mL.
For `CC(C)C[C@@H](N)C(=O)N[C@H]1C(=O)N[C@@H](CC(N)=O)C(=O)N[C@H]2C(=O)N[C@H]3C(=O)N[C@H](C(=O)N[C@H](C(=O)NCC(=O)O)c4cc(O)cc(O)c4-c4cc3ccc4O)[C@H](O)c3ccc(c(Cl)c3)Oc3cc2cc(c3O[C@@H]2O[C@@H](CO)[C@@H](O)[C@H](O)[C@@H]2O[C@H]2C[C@](C)(Nc3ccc(F)cc3)[C@H](O)[C@H](C)O2)Oc2ccc(cc2Cl)[C@H]1O` the same measures were 2.5 µg/mL (≈ 1.58 µM), 2.5 µg/mL (≈ 1.58 µM), 2.5 µg/mL (≈ 1.58 µM) and over 10 µg/mL.
The corresponding values for `CCCN(CCC)[C@H](CC(C)C)C(=O)N[C@H]1C(=O)N[C@@H](CC(N)=O)C(=O)N[C@H]2C(=O)N[C@H]3C(=O)N[C@H](C(=O)N[C@H](C(=O)NCC(=O)O)c4cc(O)cc(O)c4-c4cc3ccc4O)[C@H](O)c3ccc(c(Cl)c3)Oc3cc2cc(c3O[C@@H]2O[C@@H](CO)[C@@H](O)[C@H](O)[C@@H]2O[C@H]2C[C@](C)(Nc3ccc(Cl)cc3)[C@H](O)[C@H](C)O2)Oc2ccc(cc2Cl)[C@H]1O` are 5 µg/mL (≈ 2.96 µM), 5 µg/mL (≈ 2.96 µM), over 10 µg/mL and over 10 µg/mL.
With `CCC(CC)N[C@H](CC(C)C)C(=O)N[C@H]1C(=O)N[C@@H](CC(N)=O)C(=O)N[C@H]2C(=O)N[C@H]3C(=O)N[C@H](C(=O)N[C@H](C(=O)NCC(=O)O)c4cc(O)cc(O)c4-c4cc3ccc4O)[C@H](O)c3ccc(c(Cl)c3)Oc3cc2cc(c3O[C@@H]2O[C@@H](CO)[C@@H](O)[C@H](O)[C@@H]2O[C@H]2C[C@](C)(Nc3cccnc3)[C@H](O)[C@H](C)O2)Oc2ccc(cc2Cl)[C@H]1O`, the MIC in the assay on Staphylococcus aureus [1], against Staphylococcus aureus [2], against Enterococcus faecalis [3] and with Enterococcus faecalis [4] was over 10 µg/mL throughout.
Take `C/C=C/CN(C/C=C/C)[C@H](CC(C)C)C(=O)N[C@H]1C(=O)N[C@@H](CC(N)=O)C(=O)N[C@H]2C(=O)N[C@H]3C(=O)N[C@H](C(=O)N[C@H](C(=O)NCC(=O)O)c4cc(O)cc(O)c4-c4cc3ccc4O)[C@H](O)c3ccc(c(Cl)c3)Oc3cc2cc(c3O[C@@H]2O[C@@H](CO)[C@@H](O)[C@H](O)[C@@H]2O[C@H]2C[C@](C)(Nc3ccc(OC)cc3)[C@H](O)[C@H](C)O2)Oc2ccc(cc2Cl)[C@H]1O`: the MIC is 10 µg/mL (≈ 5.86 µM) in the assay with Staphylococcus aureus [1], over 10 µg/mL against Staphylococcus aureus [2], over 10 µg/mL against Enterococcus faecalis [3] and over 10 µg/mL against Enterococcus faecalis [4].
